The values that follow come from patent US20230257354A1, “NOVEL HETEROCYCLIC COMPOUNDS” (Hoffmann-La Roche Inc., priority 2020, published 2023).

The term IC90 denotes the concentration at which the effect reaches the 90% level.

The subject of the test is Acinetobacter baumannii ATCC17978. In words: Antimicrobial susceptibility testing, 90% growth inhibitory concentration (IC90) determination, ATCC17978. The note with it: Iso-Sensitest broth, OD 600 nm over 16 h, 35±2° C., read-out: ATCC 17978 IC90. The format is cell-based. Here is the method:
Antimicrobial Susceptibility Testing: 90% Growth Inhibitory Concentration (IC90) Determination The in vitro antimicrobial activity of the compounds was determined according to the following procedure: The assay used a 10-points Iso-Sensitest broth medium to measure quantitatively the in vitro activity of the compounds against Acinetobacter baumannii ATCC17978 or ATCC17961. Stock compounds in DMSO were serially twofold diluted (e.g. range from 50 to 0.097 μM final concentration) in 384 wells microtiter plates and inoculated with 49 μl the bacterial suspension in Iso-Sensitest medium to have a final cell concentration of ˜5×10^(5) CFU/ml in a final volume/well of 50 ul/well. Microtiter plates were incubated at 35±2° C. Bacterial cell growth was determined with the measurement of optical density at X=600 nm each 20 minutes over a time course of 16 h. Growth inhibition was calculated during the logarithmic growth of the bacterial cells with determination of the concentration inhibiting 50% (IC50) and 90% (IC90) of the growth. Table 1 provides the 90% growth inhibitory concentrations (IC90) in micromoles per liter of the compounds of present invention obtained against the strain Acinetobacter baumannii ATCC17978.

Where a name gives a salt, the structure may show the parent alone.

Consider `COc1ccc(-c2cnc(C(=O)Nc3ccc(C(=O)N[C@H]4C[C@@H](NC(=O)C5C[C@@H](O)CN5)C4)c(Cl)c3)n2C)c(F)c1F` (stereo in doubt) [Example B38, N-[3-chloro-4-[[3-[[(4R)-4-hydroxypyrrolidine-2-carbonyl]amino]cyclobutyl]carbamoyl]phenyl]-5-(2,3-difluoro-4-methoxy-phenyl)-1-methyl-imidazole-2-carboxamide;formic acid], for which the IC90 came out at 55 nM.
The result for `COc1ccc(-c2cnc(C(=O)Nc3ccc(C(=O)NCCOCCN)c(Cl)c3)n2C)c(F)c1F` [Example A1, N-[4-[2-(2-Aminoethoxy)ethylcarbamoyl]-3-chloro-phenyl]-5-(2,3-difluoro-4-methoxy-phenyl)-1-methyl-imidazole-2-carboxamide] reads 240 nM; that for `COc1ccc(-c2cnc(C(=O)Nc3ccc(C(=O)NCCN4CCNCC4)c(Cl)c3)n2C)c(F)c1F` [Example A2, N-[3-chloro-4-(2-piperazin-1-ylethylcarbamoyl)phenyl]-5-(2,3-difluoro-4-methoxy-phenyl)-1-methyl-imidazole-2-carboxamide], 610 nM; that for `COc1ccc(-c2cnc(C(=O)Nc3ccc(C(=O)NC4CCNC4)c(Cl)c3)n2C)c(F)c1F` (centres unmarked) [Example A3, N-[3-chloro-4-(pyrrolidin-3-ylcarbamoyl)phenyl]-5-(2,3-difluoro-4-methoxy-phenyl)-1-methyl-imidazole-2-carboxamide;formic acid], 310 nM.
`COc1ccc(-c2cnc(C(=O)Nc3ccc(C(=O)NC4CCNCC4)c(Cl)c3)n2C)c(F)c1F` [Example A4, N-[3-chloro-4-(4-piperidylcarbamoyl)phenyl]-5-(2,3-difluoro-4-methoxy-phenyl)-1-methyl-imidazole-2-carboxamide;formic acid]: the IC90 is 440 nM.
The result for `COc1ccc(-c2cnc(C(=O)Nc3ccc(C(=O)NCC4CCNCC4)c(Cl)c3)n2C)c(F)c1F` [Example A5, N-[3-chloro-4-(4-piperidylmethylcarbamoyl)phenyl]-5-(2,3-difluoro-4-methoxy-phenyl)-1-methyl-imidazole-2-carboxamide;formic acid] reads 550 nM; that for `COc1ccc(-c2cnc(C(=O)Nc3ccc(C(=O)NCCCCCCN)c(Cl)c3)n2C)c(F)c1F` [Example A6, N-[4-(6-aminohexylcarbamoyl)-3-chloro-phenyl]-5-(2,3-difluoro-4-methoxy-phenyl)-1-methyl-imidazole-2-carboxamide], 150 nM; that for `COc1ccc(-c2cnc(C(=O)Nc3ccc(C(=O)NCC4CC(CN)C4)c(Cl)c3)n2C)c(F)c1F` (centres unmarked) [Example A7, N-[4-[[3-(aminomethyl)cyclobutyl]methylcarbamoyl]-3-chloro-phenyl]-5-(2,3-difluoro-4-methoxy-phenyl)-1-methyl-imidazole-2-carboxamide;formic acid], 240 nM.
As for `COc1ccc(-c2cnc(C(=O)Nc3ccc(C(=O)NCC4CC(N)C4)c(Cl)c3)n2C)c(F)c1F` (centres unmarked) [Example A8, N-[4-[(3-aminocyclobutyl)methylcarbamoyl]-3-chloro-phenyl]-5-(2,3-difluoro-4-methoxy-phenyl)-1-methyl-imidazole-2-carboxamide;formic acid], the IC90 was found to be 500 nM.
The result for `Cn1c(-c2ccc(OCC#N)c(F)c2F)cnc1C(=O)Nc1ccc(C(=O)NCCOCCN)c(Cl)c1` [Example A9, N-[4-[2-(2-aminoethoxy)ethylcarbamoyl]-3-chloro-phenyl]-5-[4-(cyanomethoxy)-2,3-difluoro-phenyl]-1-methyl-imidazole-2-carboxamide;formic acid] reads 250 nM; that for `Cn1c(-c2ccc(OCC#N)c(F)c2F)cnc1C(=O)Nc1ccc(C(=O)NCCN2CCNCC2)c(Cl)c1` [Example A10, N-[3-chloro-4-(2-piperazin-1-ylethylcarbamoyl)phenyl]-5-[4-(cyanomethoxy)-2,3-difluoro-phenyl]-1-methyl-imidazole-2-carboxamide;2,2,2-trifluoroacetic acid], 360 nM; that for `Cn1c(-c2ccc(OCC#N)c(F)c2F)cnc1C(=O)Nc1ccc(C(=O)NCCCN2CCNCC2)c(Cl)c1` [Example A11, N-[3-chloro-4-(3-piperazin-1-ylpropylcarbamoyl)phenyl]-5-[4-(cyanomethoxy)-2,3-difluoro-phenyl]-1-methyl-imidazole-2-carboxamide;2,2,2-trifluoroacetic acid], 310 nM.
Turning to `Cc1cc(NC(=O)c2ncc(-c3ccc(OCC#N)c(F)c3F)n2C)ccc1C(=O)NCCCN1CCNCC1` [Example A12, 5-[4-(cyanomethoxy)-2,3-difluoro-phenyl]-1-methyl-N-[3-methyl-4-(3-piperazin-1-ylpropylcarbamoyl)phenyl]imidazole-2-carboxamide;2,2,2-trifluoroacetic acid], the IC90 came out at 340 nM.
The result for `CCc1cc(NC(=O)c2ncc(-c3ccc(OC)c(F)c3F)n2C)ccc1C(=O)NCCOCCN` [Example A13, N-[4-[2-(2-aminoethoxy)ethylcarbamoyl]-3-ethyl-phenyl]-5-(2,3-difluoro-4-methoxy-phenyl)-1-methyl-imidazole-2-carboxamide;formic acid] reads 590 nM; that for `CCc1cc(NC(=O)c2ncc(-c3ccc(OC(F)F)cc3)n2C)ccc1C(=O)NCCOCCN` [Example A14, N-[4-[2-(2-aminoethoxy)ethylcarbamoyl]-3-ethyl-phenyl]-5-[4-(difluoromethoxy)phenyl]-1-methyl-imidazole-2-carboxamide;hydrochloride], 3000 nM.
The result for `CCc1cc(NC(=O)c2ncc(-c3ccc(OC(C)C)c(F)c3)n2C)ccc1C(=O)NCCOCCN` [Example A15, N-[4-[2-(2-aminoethoxy)ethylcarbamoyl]-3-ethyl-phenyl]-5-(3-fluoro-4-isopropoxy-phenyl)-1-methyl-imidazole-2-carboxamide;hydrochloride] reads 4500 nM; that for `CCc1cc(NC(=O)c2ncc(-c3ccc(OC)cc3Cl)n2C)ccc1C(=O)NCCOCCN` [Example A16, N-[4-[2-(2-aminoethoxy)ethylcarbamoyl]-3-ethyl-phenyl]-5-(2-chloro-4-methoxy-phenyl)-1-methyl-imidazole-2-carboxamide;hydrochloride], 1500 nM.
For `CCc1cc(NC(=O)c2ncc(-c3ccc(OC(F)F)c(F)c3F)n2C)ccc1C(=O)NCCOCCN` [Example A17, N-[4-[2-(2-aminoethoxy)ethylcarbamoyl]-3-ethyl-phenyl]-5-[4-(difluoromethoxy)-2,3-difluoro-phenyl]-1-methyl-imidazole-2-carboxamide;hydrochloride], the IC90 was determined as 400 nM.
With `CCc1cc(NC(=O)c2ncc(-c3c(F)cc(OC)cc3F)n2C)ccc1C(=O)NCCOCCN` [Example A18, N-[4-[2-(2-aminoethoxy)ethylcarbamoyl]-3-ethyl-phenyl]-5-(2,6-difluoro-4-methoxy-phenyl)-1-methyl-imidazole-2-carboxamide;hydrochloride], the concentration for an effect of 90% (IC90) stood at 1200 nM.
Turning to `Cn1c(-c2ccc(OC(F)F)c(F)c2F)cnc1C(=O)Nc1ccc(C(=O)NCCCN)c(Cl)c1` [Example A19, N-[4-(3-Aminopropylcarbamoyl)-3-chloro-phenyl]-5-[4-(difluoromethoxy)-2,3-difluoro-phenyl]-1-methyl-imidazole-2-carboxamide], the 90% effect concentration (IC90) stood at 1400 nM.
